Biological target: T1, hTAS1R1 E301A/rTAS1R3 (UniProt Q7RTX1+Q923K1, E301A)
T1 construct: UniProtKB number Q7RTX1–1); The cDNA coding region of rTAS1R3 was synthesized with optimized-codon usage for human expression; expressed in transfected cells; host or cells: HEK293T/17
T1 sequence (Q7RTX1 21-841 E301A): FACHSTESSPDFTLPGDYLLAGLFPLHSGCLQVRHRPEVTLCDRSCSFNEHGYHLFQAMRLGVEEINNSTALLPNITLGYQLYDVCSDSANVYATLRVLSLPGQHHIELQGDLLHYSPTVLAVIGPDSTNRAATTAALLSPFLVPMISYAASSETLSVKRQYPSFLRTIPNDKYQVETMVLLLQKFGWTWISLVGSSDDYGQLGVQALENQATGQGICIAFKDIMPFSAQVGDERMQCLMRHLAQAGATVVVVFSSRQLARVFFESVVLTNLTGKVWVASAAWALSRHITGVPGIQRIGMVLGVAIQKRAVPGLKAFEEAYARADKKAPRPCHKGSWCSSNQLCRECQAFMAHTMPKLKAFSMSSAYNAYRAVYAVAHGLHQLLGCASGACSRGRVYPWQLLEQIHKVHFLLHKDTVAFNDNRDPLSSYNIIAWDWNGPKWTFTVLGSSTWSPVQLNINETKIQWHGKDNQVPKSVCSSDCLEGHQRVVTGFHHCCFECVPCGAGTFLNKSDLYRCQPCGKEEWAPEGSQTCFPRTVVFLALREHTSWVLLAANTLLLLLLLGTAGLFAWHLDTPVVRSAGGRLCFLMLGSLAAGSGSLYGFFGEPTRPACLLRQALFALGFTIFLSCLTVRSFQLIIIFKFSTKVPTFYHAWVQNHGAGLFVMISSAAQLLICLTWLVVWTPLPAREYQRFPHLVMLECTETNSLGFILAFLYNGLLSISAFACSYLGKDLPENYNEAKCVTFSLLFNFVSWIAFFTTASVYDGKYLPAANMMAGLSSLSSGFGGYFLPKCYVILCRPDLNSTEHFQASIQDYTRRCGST
T1 sequence (Q923K1 21-858): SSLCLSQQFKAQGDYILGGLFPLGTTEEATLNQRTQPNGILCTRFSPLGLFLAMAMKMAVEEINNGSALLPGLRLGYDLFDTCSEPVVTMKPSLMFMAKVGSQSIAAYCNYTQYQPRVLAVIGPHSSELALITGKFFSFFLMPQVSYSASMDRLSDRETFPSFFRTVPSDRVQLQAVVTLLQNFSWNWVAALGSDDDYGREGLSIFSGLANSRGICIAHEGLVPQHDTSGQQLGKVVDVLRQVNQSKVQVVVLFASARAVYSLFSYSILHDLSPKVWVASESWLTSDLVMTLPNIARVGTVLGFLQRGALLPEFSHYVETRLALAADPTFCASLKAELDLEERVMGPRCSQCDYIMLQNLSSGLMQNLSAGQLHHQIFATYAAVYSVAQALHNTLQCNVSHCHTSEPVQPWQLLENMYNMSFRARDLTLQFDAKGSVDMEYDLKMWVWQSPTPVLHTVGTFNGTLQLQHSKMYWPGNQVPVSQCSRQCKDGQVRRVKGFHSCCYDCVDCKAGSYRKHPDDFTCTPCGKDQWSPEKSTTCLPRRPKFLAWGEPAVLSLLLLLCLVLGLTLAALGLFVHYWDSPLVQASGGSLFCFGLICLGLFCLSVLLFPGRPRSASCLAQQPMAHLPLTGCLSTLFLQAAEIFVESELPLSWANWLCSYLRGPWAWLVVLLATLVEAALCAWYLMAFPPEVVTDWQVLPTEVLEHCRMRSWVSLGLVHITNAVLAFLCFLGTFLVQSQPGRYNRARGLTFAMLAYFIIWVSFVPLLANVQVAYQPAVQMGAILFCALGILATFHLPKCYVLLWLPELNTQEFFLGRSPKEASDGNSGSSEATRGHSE
Assay: cell-based
Type: cell-based, human, rat
Settings: for response to the agonist alone, vs WT: E301A
Excerpt: Chimeric Gα proteins, such as Gα16Gust44, Gα16Gi3 or Gα15i2, are widely used in the functional expression of TAS1R receptors ([Backes et al., 2015]; [Suess et al., 2015]; [Toda et al., 2021], [Toda et al., 2013], [Toda et al., 2018]; [Zhang et al., 2008]). Chimeric Gα15i2 (([Toda et al., 2013]), Supplementary data) was generated by replacing the last five residues of the C-terminal tail of rat Gα15i2 (EINLL) (UniProt number G3V6N8; https://www.uniprot.org/uniprot/) with the counterpart sequence from human GNAI2 (DCGLF) (UniProt number P04899-1) and cloning into the pcDNA3.1/Hygro vector (Invitrogen, Thermo Fisher Scientific, Illkirch, France) between the HindIII and NotI restriction sites, resulting in the plasmid pcDNA3.1-Gα15i2. Chimeric Gα16Gust44 construct have already been reported ([Raliou et al., 2011]). Briefly, Gα16Gust44 was generated by replacing the C-terminal of Gα16 with the C-terminal 44 residues of gustducin. As previously described, hTAS1R1 was amplified from human fungiform papillae cDNA and cloned and inserted into pcDNA3 (Invitrogen), generating pcDNA3-TAS1R1-WT (wild-type) ([Raliou et al., 2011]). […] The cDNA coding region of rTAS1R3 was synthesized with optimized-codon usage for human expression (Genewiz) and was cloned and inserted into the mammalian pcDNA4/myc-HisA (Invitrogen) expression vector between the EcoRI and NotI restriction sites, resulting in the plasmid pcDNA4-rTAS1R3. […] The sequence integrity of all the plasmid constructs was verified via automated DNA sequencing (Genewiz).
The hTAS1R1 mutants were co-expressed with the rTAS1R3 subunit in HEK293 cells. […] As a control, the functionality of the mutated receptors was checked after stimulation with S807 (Fig. S8), which interacts with TAS1R1-TMD ([Zhang et al., 2008]).

Compound | EC50 [mM] | response to the agonist alone, vs WT
N[C@@H](CCC(=O)N[C@@H](CS)C(=O)NCC(=O)O)C(=O)O [GSH, γ-L-glutamyl-L-cysteinyl-glycine] | > 30 | fully abolished
N[C@@H](CCC(=O)O)C(=O)O [L-Glu, L-glutamic acid, reference compound] |  | completely suppressed
